Assay results taken from PubChem BioAssay AID1259407 (Chemical Carcinogenesis Research Information System (CCRIS), 2018).
Activity calls are given as the source filed them. How the calls were made is not given here.

System: CCRIS mutagenicity, Ames/micronucleus/aberration tests
Test: CCRIS mutagenicity studies
Settings: Method: PREINCUBATION

Measured: mutagenic call

CCCCCCCCCCCCCC(=O)O
inactive: Test System: AMES SALMONELLA TYPHIMURIUM, Strain/Indicator: TA97, Metabolic Activation: HAMSTER, LIVER, S-9, AROCLOR 1254 (10 OR 30%) inactive; negative | Test System: AMES SALMONELLA TYPHIMURIUM, Strain/Indicator: TA97, Metabolic Activation: NONE inactive; negative | Test System: AMES SALMONELLA TYPHIMURIUM, Strain/Indicator: TA97, Metabolic Activation: RAT, LIVER, S-9, AROCLOR 1254 (10%) inactive; negative | Test System: AMES SALMONELLA TYPHIMURIUM, Strain/Indicator: TA97, Metabolic Activation: RAT, LIVER, S-9, AROCLOR 1254 (30%) inactive; negative | Test System: AMES SALMONELLA TYPHIMURIUM, Strain/Indicator: TA98, Metabolic Activation: HAMSTER, LIVER, S-9, AROCLOR 1254 (10 OR 30%) inactive; negative | Test System: AMES SALMONELLA TYPHIMURIUM, Strain/Indicator: TA98, Metabolic Activation: NONE inactive; negative | Test System: AMES SALMONELLA TYPHIMURIUM, Strain/Indicator: TA98, Metabolic Activation: RAT LIVER S-9, PHENOBARBITAL AND BETA-NAPHTHOFLAVONE inactive; negative | Test System: AMES SALMONELLA TYPHIMURIUM, Strain/Indicator: TA98, Metabolic Activation: RAT, LIVER, S-9, AROCLOR 1254 (10 OR 30%) inactive; negative | Test System: AMES SALMONELLA TYPHIMURIUM, Strain/Indicator: TA100, Metabolic Activation: HAMSTER, LIVER, S-9, AROCLOR 1254 (10%) inactive; negative | Test System: AMES SALMONELLA TYPHIMURIUM, Strain/Indicator: TA100, Metabolic Activation: HAMSTER, LIVER, S-9, AROCLOR 1254 (30%) inactive; negative | Test System: AMES SALMONELLA TYPHIMURIUM, Strain/Indicator: TA100, Metabolic Activation: NONE inactive; negative | Test System: AMES SALMONELLA TYPHIMURIUM, Strain/Indicator: TA100, Metabolic Activation: RAT LIVER S-9, PHENOBARBITAL AND BETA-NAPHTHOFLAVONE inactive; negative | Test System: AMES SALMONELLA TYPHIMURIUM, Strain/Indicator: TA100, Metabolic Activation: RAT, LIVER, S-9, AROCLOR 1254 (10%) inactive; negative | Test System: AMES SALMONELLA TYPHIMURIUM, Strain/Indicator: TA100, Metabolic Activation: RAT, LIVER, S-9, AROCLOR 1254 (30%) inactive; negative | Test System: AMES SALMONELLA TYPHIMURIUM, Strain/Indicator: TA1535, Metabolic Activation: HAMSTER, LIVER, S-9, AROCLOR 1254 (10 OR 30%) inactive; negative | Test System: AMES SALMONELLA TYPHIMURIUM, Strain/Indicator: TA1535, Metabolic Activation: NONE inactive; negative | Test System: AMES SALMONELLA TYPHIMURIUM, Strain/Indicator: TA1535, Metabolic Activation: RAT, LIVER, S-9, AROCLOR 1254 (10 OR 30%) inactive; negative | Test System: AMES SALMONELLA TYPHIMURIUM, Strain/Indicator: TA1537, Metabolic Activation: HAMSTER, LIVER, S-9, AROCLOR 1254 (10 OR 30%) inactive; negative | Test System: AMES SALMONELLA TYPHIMURIUM, Strain/Indicator: TA1537, Metabolic Activation: NONE inactive; negative | Test System: AMES SALMONELLA TYPHIMURIUM, Strain/Indicator: TA1537, Metabolic Activation: RAT LIVER S-9, PHENOBARBITAL AND BETA-NAPHTHOFLAVONE inactive; negative | Test System: AMES SALMONELLA TYPHIMURIUM, Strain/Indicator: TA1537, Metabolic Activation: RAT, LIVER, S-9, AROCLOR 1254 (10 OR 30%) inactive; negative | Test System: E.COLI, Strain/Indicator: WP2UVRA/PKM101, Metabolic Activation: NONE inactive; negative | Test System: E.COLI, Strain/Indicator: WP2UVRA/PKM101, Metabolic Activation: RAT LIVER S-9, PHENOBARBITAL AND BETA-NAPHTHOFLAVONE inactive; negative
